Assay: xn = mol fraction of the nth substance listed

O.OC[C@H]1O[C@H](O[C@H]2[C@H](O)[C@@H](O)[C@H](O)O[C@@H]2CO)[C@H](O)[C@@H](O)[C@@H]1O + O
viscosity [mPa·s]
Conditions | x1 = 0.000899 | x1 = 0.001221 | x1 = 0.001607 | x1 = 0.001874 | x1 = 0.002333 | x1 = 0.002646 | x1 = 0.006
298.15 K, 101 kPa | 0.936 | 0.956 | 0.974 | 0.988 | 1.012 | 1.026 | –
308.15 K, 101 kPa | 0.756 | 0.77 | 0.785 | 0.795 | 0.815 | 0.825 | –
310 K, 101.3 kPa | – | – | – | – | – | – | 1.09
318.15 K, 101 kPa | 0.626 | 0.636 | 0.649 | 0.657 | 0.671 | 0.681 | –

O=S(=O)([O-])[O-].O=S(=O)([O-])[O-].O=S(=O)([O-])[O-].[Al+3].[Al+3] + O
viscosity [mPa·s], 101 kPa
Conditions | 298.15 K | 323.15 K
x1 = 0.0016 | 1.12 | 0.597
x1 = 0.00272 | – | 0.734
x1 = 0.00291 | – | 0.743
x1 = 0.0032 | 1.36 | 0.695
x1 = 0.00384 | – | 0.839
x1 = 0.00482 | – | 0.96
x1 = 0.0053 | 1.93 | 0.925
x1 = 0.005932 | – | 1.074
x1 = 0.0071 | 2.44 | 1.15
x1 = 0.007109 | – | 1.242
x1 = 0.008241 | – | 1.431
x1 = 0.0087 | 3.17 | 1.44
x1 = 0.009379 | – | 1.686
x1 = 0.0105 | 4.21 | 1.82
x1 = 0.0106 | – | 1.989
x1 = 0.01197 | – | 2.398
x1 = 0.0123 | 5.95 | 2.41
x1 = 0.01327 | – | 2.919
x1 = 0.0145 | 8.96 | 3.43
x1 = 0.0147 | – | 3.571
x1 = 0.0154 | 10.5 | 3.96
x1 = 0.01608 | – | 4.31
x1 = 0.0161 | 11.8 | 4.33
x1 = 0.017 | 14.4 | 5.17
x1 = 0.01732 | – | 4.975
x1 = 0.0184 | 18 | 6.12
x1 = 0.01889 | – | 6.121

From the CheMixHub viscosity set
